Experimental data from patent US4775692A, “2,5,6,7-tetranor-4,8-inter-m-phenylene PGI2 derivatives” (Toray Industries, Inc., priority 1986, dated 1988).
In brackets after ≈: the same amount, converted by molar mass. Where two headings read alike, the source gives them in different places.

Key:
[1] = tested on: blood pressure of the carotid; assay: Hypotensive effect (carotid blood pressure, anesthetized rat); type: in vivo; conditions: chloralose-anesthetized Wistar male rat, injected via catheter connected to femoral artery; read-out: Hypotensive effect ED25 (dose reducing blood pressure by 25 mmHg)
Protocol: A catheter was inserted to a carotid of the Wistar male rat under chloralose anesthesia. Another end of the catheter was connected to a polygraph with a pressure-transducer to detect a blood pressure of the carotid. The compound was injected via catheter connected to a femoral artery. The dose of the compound which may reduce the blood pressure in an amount of 25 mmHg was designated as ED25.

gastric acid secretion [2] = assay: Inhibiting effect of gastric acid secretion, pylorus-ligated rat (Shay); type: in vivo; conditions: pylorus ligation, injected into duodenum, 5 hours
Protocol: (§1) Inhibiting effect of gastric acid secretion
Under anesthesia by ether, the abdomen of the rat was incised in its median and a pylorus was ligated with silk thread according to Shay (Gastroenterology 5, 43 (1945)). Simultaneously, the compound was injected into a duodenum of the rat and then the incision was closed.
Five hours later, the median-incision of the abdomen was again performed and the esophargus was ligated and then the whole stomach was removed.
The stomach was cut along a greater curvature and the contents thereof was transferred into a graduated centrifuge tube. After centrifugation at 3,000 rpm for 10 min., a volume of a gastric juice was measured and a part of its supernatant was titrated to pH 7 with 0.1N NaOH using a pH-stat (Radio meter).
The mean dose of the compounds which may reduce the volume of gastric juice (ml) and acidity (mEq/ml) of a group of five animals to 50% of that of the controls were designated respectively as ED50.

gastric acid secretion [3] = assay: Inhibiting effect of gastric acid secretion, perfused stomach, pentagastrin-stimulated (Ghosh & Schild); type: in vivo, male SD rat; conditions: urethane-anesthetized SD rat, pentagastrin 0.05 μg/kg/min, injected through femoral vein; ratio of area index to that of PGE2
Protocol: as §1
A male SD rat was incised in the abdomen under anesthesia by urethane and the lumen of a stomach was perfused with a physiolosical saline solution through a double-cannula inserted into a lumen of the stomach. A pH of a draining gastric acid was monitored using a pH-meter (M. Ghosh, H. Schild, Br. J. Pharmacol. 13, 54 (1958)). The secretion of gastric acid was stimulated by a continuous infusion of the pentagastrin at a rate of 0.05 μg/kg/min. When the pH of gastric acid became stable value of about 4, the compound was injected through a femoral vein. As an index of the inhibiting effect of gastric acid secretion by the compound was calculated from the area surrounded by the curve drawn by the time course of the pH of gastric acid, from the point increase by the injection of the compound and to the point it came back to baseline. The index thus obtained was compared to that of PGE2 and a ratio therebetween was shown in Table 3, as a relative effect of the compound.

platelet aggregation [4] = assay: Inhibiting effect of platelet aggregation (ADP-induced, human platelet-rich plasma); type: cell-based; conditions: human PRP, compound added one minute before ADP
Protocol: Inhibiting effect of platelet aggregation
The blood taken from a human median cubital vein was centrifuged at 800 rpm for 10 min. and a supernatant thereof was used as a platelet-rich plasma (PRP). An aliquot of PRP thus obtained was put into a small tube, to which […] (ADP) was added to induce platelet aggregation. The extent of aggregation was determined by detecting a change in turbidity of the aliquot by an apparatus for measuring platelet aggregation (Rika-Denki, Tokyo). The compound was added one minute before the addition of ADP. The concentration of the compound which may reduce the platelet aggregation, 50% of the control was designated as IC50.

corpus of stomach = assay: Gastric cytoprotection effect (lesion length / ulcer index after oral 0.2N NaOH); type: in vivo; conditions: 1 h, 30 min before oral 0.2N NaOH, lesion measured one hour later, read-out: Gastric cytoprotection effect ED50 (dose reducing the sore to 50% of control)
Text: Gastric cytoprotection effect
Gastric cytoprotection effect was studied according to the method by A. Robert (Gastroenterology, 77(3), 443, (1979)). Thirty min. after oral administration of the compound according to the invention, 0.2N NaOH was orally applied to the animals.
One hour later, the animals were killed under anesthesia by chloroform. The stomach was removed and fixed in a solution of 5% formalin. After fixation, the stomach was cut along the greater curvature. A total length of the lesion appearing on the corpus of stomach was then measured and served as an ulcer index.
The dose of the compound which may reduce the sore to 50% of that of the control was designated as ED50.
The gastric cytoprotection effects of the compounds according to the invention, which is thus represented by ED50, are summarized in Table 1.

[5] = cited from earlier work
peripheral blood vessel = conditions: cited from earlier work
platelet aggregation [6] = conditions: cited from earlier work
[7] = converted to 6-oxo PGF1α; cited from earlier work
gastric acid secretion [8] = conditions: cited from earlier work
[9] = acidity (mEq/ml) to 50% of controls, read-out: Inhibiting effect of gastric acid secretion ED50, Acidity
[10] = volume (ml) to 50% of controls, read-out: Inhibiting effect of gastric acid secretion ED50, Volume of the gastric juice

SMILES	ED (25 mmHg) [1] [µg/kg]	ED50 (gastric acid secretion [2]; [9]) [mg/kg]	ED50 (gastric acid secretion [2]; [10]) [mg/kg]	Inhibiting effect of gastric acid secretion, Relative effect (PGE2 = 1) (gastric acid secretion [3])	IC50 (platelet aggregation [4]) [ng/mL]	ED50 (corpus of stomach) [µg/kg]	duration of physiological activities in vivo [5]	stability in vivo [5]	peripheral blood vessel-dilating activity (peripheral blood vessel)	platelet aggregation-inhibiting activity (platelet aggregation [6])	stability in neutral aqueous solutions [7]	gastric acid secretion-inhibiting activity (gastric acid secretion [8])
O=C(O)COc1cccc2c1O[C@H]1C[C@@H](O)[C@H](/C=C/[C@@H](O)CCC3CCCCC3)[C@@H]21 (relative stereo) [Compound 244, 17-cyclohexyl-2,5,6,7,18,19,20-heptanor-4-oxa-4,8-inter-m-phenylene PGI2]	0.47	> 10	3.5	3.9	28 (≈ 67.2 nM)	8.52						
O=C(O)COc1cccc2c1O[C@H]1C[C@@H](O)[C@H](/C=C/[C@@H](O)c3ccccc3)[C@@H]21 (relative stereo) [Compound 256, 15-phenyl-2,5,6,7,16,17,18,19,20-nonanor-4-oxa-4,8-inter-m-phenylene PGI2]	0.1	0.11	0.044	7.8	0.088 (≈ 0.23 nM)	3.2						
O=C(O)COc1cccc2c1O[C@H]1C[C@@H](O)[C@H](/C=C/[C@@H](O)Cc3ccccc3)[C@@H]21 (relative stereo) [Compound 260, 16-phenyl-2,5,6,7,17,18,19,20-octanor-4-oxa-4,8-inter-m-phenylene PGI2]	0.98	4.5	5.2	13	3.5 (≈ 8.83 nM)	51.4						
O=C(O)COc1cccc2c1O[C@H]1C[C@@H](O)[C@H](/C=C/[C@@H](O)CCc3ccccc3)[C@@H]21 (relative stereo) [Compound 263, 17-phenyl-2,5,6,7,18,19,20-heptanor-4-oxa-4,8-inter-m-phenylene PGI2]	0.23	1.3	0.58	42	3.4 (≈ 8.28 nM)	13.7						
O=C(O)COc1cccc2c1O[C@H]1C[C@@H](O)[C@H](/C=C/[C@@H](O)c3cccc(F)c3)[C@@H]21 (relative stereo) [Compound 274, 15-(m-fluorophenyl)-2,5,6,7,16,17,18,19,20-nonanor-4-oxa-4,8-inter-m-phenylene PGI2]	0.053	0.88	0.26	12	1.35 (≈ 3.37 nM)	9.6						
O=C(O)COc1cccc2c1O[C@H]1C[C@@H](O)[C@H](/C=C/[C@@H](O)c3cccc(C(F)(F)F)c3)[C@@H]21 (relative stereo) [Compound 278, 15-(m-trifluoromethylphenyl)-2,5,6,7,16,17,18,19,20-nonanor-4-oxa-4,8-inter-m-phenylene PGI2]	0.11	1.1	0.63	6.9	0.79 (≈ 1.75 nM)	3.1						
O=C(O)COc1cccc2c1O[C@H]1C[C@@H](O)[C@H](/C=C/[C@@H](O)c3ccccc3Cl)[C@@H]21 (relative stereo) [Compound 281, 15-(o-chlorophenyl)-2,5,6,7,16,17,18,19,20-nonanor-4-oxa-4,8-inter-m-phenylene PGI2]	0.14	0.5	0.46	10	0.82 (≈ 1.97 nM)	2.4						
O=C(O)COc1cccc2c1O[C@H]1C[C@@H](O)[C@H](/C=C/[C@@H](O)c3cccc(Cl)c3)[C@@H]21 (relative stereo) [Compound 285, 15-(m-chlorophenyl)-2,5,6,7,16,17,18,19,20-nonanor-4-oxa-4,8-inter-m-phenylene PGI2]	0.055	1.2	0.88	4.1	0.23 (≈ 0.552 nM)	3.5						
O=C(O)COc1cccc2c1O[C@H]1C[C@@H](O)[C@H](/C=C/[C@@H](O)c3ccc(Cl)cc3)[C@@H]21 (relative stereo) [Compound 289, 15-(p-chlorophenyl)-2,5,6,7,16,17,18,19,20-nonanor-4-oxa-4,8-inter-m-phenylene PGI2]	0.084	0.97	0.43	17	0.74 (≈ 1.78 nM)	4						
CCCOCC(C)(C)[C@H](O)/C=C/[C@@H]1[C@H]2c3cccc(OCC(=O)O)c3O[C@H]2C[C@H]1O (relative stereo) [Compound 309, 16,16-Dimethyl-20a-homo-2,5,6,7-tetranor-4,18-dioxa-4,8-inter-m-phenylene PGI2]	0.3	2.01	0.805	33	72 (≈ 171 nM)	7.47						
CC#CCC(C)[C@H](O)/C=C/[C@@H]1[C@H]2c3cccc(OCC(=O)O)c3O[C@H]2C[C@H]1O (relative stereo) [Compound 321, 16-Methyl-2,5,6,7-tetranor-4-oxa-18,18,19,19-tetradehydro-4,8-inter-m-phenylene PGI2]	0.22	0.32	0.12	41	0.33 (≈ 0.854 nM)	0.5						
CCCCC[C@H](O)/C=C/[C@@H]1[C@H]2C/C(=C/CCCC(=O)O)O[C@H]2C[C@H]1O [PGI2, Prostaglandin I2]							only short duration	unstable in vivo	potent	potent	extremely unstable	potent
